Experimental findings from ChEMBL document CHEMBL1201862, “PubChem BioAssay data set” (2004) are described below.

What all share (experiment): inhibition of tumour cell growth, NCI panel, 48 h
The subject of experiment [1] is BT-549.
Experiment [2] relates to DLD-1.
Experiment [3] relates to HOP-18.
In experiment [4] the test system is Hs-578T.
For experiment [5], the system named is LXFL 529.
In experiment [6] the test system is M19-MEL.
The subject of experiment [7] is MCF7.
Experiment [8] deals with RXF 631.
Experiment [9] has as its system NCI/ADR-RES.

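Each compound was tested at five concentrations against cells in 96-well plates for 48 hours. Abbreviation: GI50, concentration required for 50% inhibition of growth.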 Activity calls are given as the source filed them. No stated cut-off is given here; in the data, active = GI50 up to about 1.1 µM and inactive = higher.

As to `COc1c(C=O)c2c(c(OC)c1OC)-c1ccc(OC)c(=O)cc1[C@@H](NC(C)=O)CC2`, the GI50 in experiment [1] was 21.1 µM (inactive); in experiment [2], 0.0614 µM (active); in [3], 21.6 µM (inactive); in experiment [4], < 0.01 µM (active); in experiment [5] it was 0.0191 µM (active); in [6], 0.0764 µM (active). The GI50 in [7] was < 0.01 µM (active); in experiment [8], 0.229 µM (active).

In the case of `Cc1ccc(C)c(NC(=O)C(=O)CC(=O)c2cccc3ccccc23)c1`, the GI50 in experiment [2], in [3], in experiment [5], in [6] and in experiment [8] was > 100 µM (inactive) throughout.

Consider `Cc1ccc(Nc2nc(C)c(C(/C=C/c3ccc4c(c3)OCO4)=N/Nc3ccc([N+](=O)[O-])cc3[N+](=O)[O-])s2)c([N+](=O)[O-])c1`, for which the GI50 in experiment [2] is 27.6 µM (inactive); in experiment [3] it was 7.69 µM (inactive); in experiment [5], 6.03 µM (inactive); in experiment [6], 59.7 µM (inactive); in experiment [8], 42.5 µM (inactive).

Consider `CCc1cccc(CC)c1NC(=S)NC(=O)c1ccc(Br)cc1`, for which the GI50 in experiment [2] was 34.9 µM (inactive); in experiment [3], 49.9 µM (inactive); in experiment [4], 3.76 µM (inactive); in experiment [5], 43.1 µM (inactive); in experiment [6], 35.2 µM (inactive); in experiment [7], 20.6 µM (inactive). The GI50 in experiment [9] was 29.7 µM (inactive); in experiment [8] it was > 100 µM (inactive).

As to `CCC(=O)OC[n+]1ccc2c(C)c3[nH]c4ccc(OC)cc4c3c(C)c2c1`, the GI50 in experiment [2] was 0.0435 µM (active); in experiment [3] it was < 0.01 µM (active); in experiment [5], 0.0582 µM (active); in [6], 0.266 µM (active); in [8], 0.0843 µM (active).

As for `COc1ccc(C(=O)OC2C=COC(C)C2OC(=O)c2ccc(OC)cc2)cc1` (stereo unspecified), the GI50 in [2] is 16.4 µM (inactive); in experiment [3], 27.2 µM (inactive); in experiment [5], 14.5 µM (inactive); in experiment [6] it was 30.7 µM (inactive); in experiment [8], 26.4 µM (inactive).

Regarding `CC(=O)N(C)c1ccc2c(ccc[n+]2[O-])c1[N+](=O)[O-]`, the GI50 in [2], in [3], in experiment [5], in [6] and in experiment [8] was > 100 µM (inactive) in each case.

Regarding `CN(C)CCNC(=O)c1cccc2nc3c(Cl)cccc3nc12`, the GI50 was 4.43 µM (inactive) in [2]; > 30.7 µM (inactive) in experiment [3]; 9.84 µM (inactive) in experiment [5]; 2.96 µM (inactive) in experiment [6]; 6.92 µM (inactive) in experiment [8].

With `CCCCCCCCCCCCCCCCCC(=O)NCC(COP(=O)([O-])OCC[N+](C)(C)C)OC` (stereo unspecified), the GI50 in experiment [2] was 2.59 µM (inactive); in experiment [3], 3.78 µM (inactive); in experiment [5], 6.78 µM (inactive); in experiment [6], 2.43 µM (inactive); in experiment [8] it was 13.4 µM (inactive).
